# Values of other authors, collected in patent publication US8853170B2, “Compositions comprising sugar-cysteine products” (Max International, LLC, priority 2010, dated 2014).
# Key:
# glutathione levels = settings: mice, 8 mmol/kg i.p.
# [1] = tested on: mice exposed to cyclophosphamide; settings: 8 mmol/kg
# [2] = tested on: acetaminophen hepatic and renal toxicity; settings: mice, doses of 2 g/kg
# [3] = tested on: irradiation-induced bowel injury; settings: mice, doses of 1 g/kg
# healthy humans = settings: orally 8-10 g per day by an adult
# ATP levels = settings: dogs subjected to ischemia, about 3 g/day for at least 5 days
# humans = settings: ribose administered directly to humans
Compound,"increased glutathione levels, heart (glutathione levels; heart) [times]","increased glutathione levels, muscle tissue (glutathione levels; muscle tissue) [times]",delivery of protective amounts of cysteine [1],protection against acetaminophen hepatic and renal toxicity [2],protection against irradiation-induced bowel injury [3],exercise capacity (healthy humans),ATP levels (ATP levels),toxicity (humans)
"O=C(O)[C@@H]1CSC(C(O)C(O)C(O)CO)N1 (stereo partly drawn) [RibCys, 2(R,S)-D-ribo-(1′,2′,3′,4′-tetrahydroxybutyl)thiazolidine-4(R)-carboxylic acid]",1.5,2.5,deliver effective protective amounts of cysteine,protect mice against acetaminophen hepatic and renal toxicity,protect mice against irradiation-induced bowel injury,,,
O=C[C@H](O)[C@H](O)[C@H](O)CO [ribose],,,,,,increase exercise capacity,effectively restored and maintained ATP levels,essentially non-toxic over wide dosage ranges
